Tests used:
PBMC cells = assay: Safety assessment by trypan blue assay in PBMC; assay type: cell-based; details: 500-4000 nM, 48 hours
Description: Control is PBS treated PBMC cells. n=3, data represented as mean±standard error mean (SEM).
Safety assessment by trypan blue assay […] blood mononuclear cells (PBMC) (ATCC® PCS-800-011™) were purchased from ATCC (Virginia, USA). The cells were regularly tested for Mycoplasma contamination using MycoAlert™ Mycoplasma detection kit (Lonza). All the cells used in the experiment were passaged less than 2 times. 10,000 PBMC cells were seeded in a 96 well plate. The cells were treated with 500 nM, 1000 nM, 2000 nM and 4000 nM PNA-155 and γtcPNA-155 for 48 hrs in an incubator. The dead cells were examined with trypan blue and further counted using an automated cell counter (Bio-rad).

miR-155 downstream genes = assay: Downstream gene expression and protein levels in U2932 tumor samples; assay type: in vivo, NSG mice; details: U2932 xenograft
Description: (§1) FIGS. 22A-D show in vivo gene expression and protein level analysis. (22A) miR-155 gene expression levels in U2932 tumor samples after in vivo treatment with indicated PNAs. Data was normalized with average control U6 (n=4, data represented as mean±standard error mean). ***p<0.001 (22B) Gene expression level of downstream target genes of miR-155: MCL1 in U2932 tumor samples after treatment with total 3 mg kg-1 dose of Scr-γtcPNA-155, PNA-155, γPNA-155 and γtcPNA-155 and normalized with average control GAPDH (n=3, data represented as mean±SEM), unpaired two-tailed t-test was performed for analysis). *p<0.05, **p<0.01 (22C) Representative western blot of Mcl-1 protein and its quantification (n=3 technical replicate) in U2932 tumor samples treated with total 3 mg kg-1 dose of Scr-γtcPNA-155, PNA-155 and γtcPNA-155. Data is represented as mean±SEM and unpaired two-tailed t-test was performed for analysis. *p<0.05. The relative protein levels were determined from the band intensity using ImageJ software and normalized relative to loading control and treatment control. (22D) Gene expression level of tumor suppressor proteins (FOXO3A, CUX1, SOCS1, CSF1R, JARID2, SHIP1, PICALM, PDCD4, BACH1, CASP3) in U2932 tumor samples after treatment with total 3 mg kg-1 dose of Scr-γtcPNA-155, PNA-155, γPNA-155 and γtcPNA-155 and normalized with average control GAPDH (n=3, data represented as mean±SEM, unpaired two-tailed t-test was performed for statistical analysis). *p<0.05, **p<0.01.
Data is represented as mean±SEM and unpaired t-test was used for statistical analysis *p<0.05. The relative protein levels were determined from the band intensity using ImageJ software and normalized relative to loading control and treatment control.
Data is represented as mean±SEM and unpaired t-test was used for statistical analysis.
Data is represented as mean±SEM and unpaired t-test was used for statistical analysis. The relative protein levels were determined from the band intensity using ImageJ software and normalized relative to loading control and treatment control.
(§2) RNA and Protein extraction from tumor samples: The mice were injected intra-tumorally with 1 mg kg-1 dose of PNA-155, γtcPNA-155, γPNA-155, Scr-γtcPNA-155 or were untreated. The injections were repeated two additional times after 1 week each. The length, breadth, and depth of the tumors were measured daily using a vernier caliper. The mice were euthanized when the tumor volumes reached 2000 mm^3. The resected tumor sections were finely minced using a sterile blade and suspended in dissociation media (4 ml) comprising of RPMI-1640, 1.2 mg/ml dispase, and 0.5 mg/ml collagenase for 90 mins at 500 rpm at 37° C. The dissociated tumors were washed with buffer saline at 2500 rpm (4 mins) at 4° C. and then suspended in 0.25% trypsin for 4 mins at room temperature. RPMI 1640 media was added to the trypsinized tumor mass, and the cells were passed through a 70 um filter. The cells were centrifuged at 2500 rpm for 4 mins at 4° C. The cell pellet was then suspended in 1×RBC lysis buffer (Sigma) and incubated on ice for 10 mins. PBS was added to the cells and the cells were passed through a 40 um filter. The cells were centrifuged at 2500 rpm for 4 mins at 4° C. The cell pellet was resuspended in 0.5% BSA in PBS. The mouse cells were removed from the tumor cells using a mouse cell depletion kit (Miltenyi Biotec) according to the manufacturer's protocol. The enriched tumor cells from each tumor sample were divided into two fractions. RNA for gene expression analysis was extracted from one tumor fraction by the same procedure as mentioned earlier. The protein for western blot analysis was extracted from the second fraction using the method described above.

miR-155 = miR-155 gene expression in U2932 tumor samples after in vivo treatment; parameters: species or system NSG mice; details: U2932 xenograft
Description: as §1
as §2, with “The mouse cells were removed from the tumor cells using a mouse cell depletion kit (Miltenyi Biotec) according to the manufacturer's protocol. The enriched tumor cells from each tumor sample were divided into two fractions. RNA for gene expression analysis was extracted from one tumor fraction by the same procedure as mentioned earlier. The protein for western blot analysis was extracted from the second fraction using the method described above.” left out

SUDHL-2 cells = assay: Cell viability by trypan blue assay, SUDHL-2; assay type: cell-based; details: SUDHL-2, in comparison to PBS treated control cells
Description: (§3) Cell viability was performed using trypan blue-based assay (n=3 technical triplicate), data represented as mean±(SEM), * represents the statistical analysis were performed relative to Scr-γtcPNA-155 and ♦ represent analysis performed relative to PNA-155. *p<0.05, **p<0.01, ***p<0.001 and ****p<0.0001, ♦p<0.05, ♦♦p<0.01, unpaired two-tailed t-test was used for statistical analysis. The experiment was repeated three times and in triplicate.
(§4) Cell viability was performed using trypan blue-based assay (n=3), data represented as mean±standard error mean (SEM), *p<0.05, **p<0.01. Unpaired two-tailed t-test was used for statistical analysis.
(§5) Cell viability was performed using trypan blue-based assay (n=3), data represented as mean±standard error mean (SEM).
(§6) Cell viability by trypan blue assay: Diffused large B cell lymphoma (DLBCL) cell lines like SUDHL-2 (ATCC® CRL-2956™) and SUDHL-5 (ATCC® CRL-2958™) cells were purchased from ATCC (Virginia, USA). The cells were regularly tested for Mycoplasma contamination using MycoAlert™ Mycoplasma detection kit (Lonza). All the cells used in the experiment were passaged less than 8 times. 10,000 U2932, SUDHL-5, or SUDHL-2 cells were plated in a 96 well plate. The cells were treated with different doses (500 nM, 1000 nM, 2000 nM and 4000 nM) of PNA-155, gamma tcPNA-155 or Scr-γtcPNA-155 for 48 hrs in an incubator (37° C. and 5% CO2). The dead cells were marked with trypan blue. Further counting was performed using an automated cell counter (Bio-rad).

SUDHL-5 cells = assay: Cell viability by trypan blue assay, SUDHL-5; assay type: cell-based; details: SUDHL-5, in comparison to PBS treated control cells
Description: as §3, §4, §5, §6

[1] = test system: U2932 subcutaneous tumors; assay: Tumor growth in U2932 derived xenograft model; assay type: in vivo, NSG mice; details: intra-tumoral injections days 0, 7, 14
Description: Mouse tumor xenograft: Female NSG mice (NOD.Cg-Prkdcscid Il2rgtm1Wjl/SzJ, strain 005557) weighing 20-23 g were procured from Jackson laboratories. 1×10^7 U2932 cells suspended in RPMI-1640 medium were injected subcutaneously in the right and left flank of 6-week-old NSG mice. The mice developed a small bump in 2 weeks. When the tumor volume reached 100-200 mm^3, the mice were randomly assigned to the treatment group (n=6 per group).
as §2
For the efficacy study, each mouse received three intra-tumoral injections of either γtcPNA-155, γPNA-155 or PNA-155 on days 0, 7, 14. We noticed that the control and scrambled treated tumors reached 2000 mm^3 much faster during our study, so we could not inject a third time in these mice. […] In contrast, as stated earlier, there was no effect on the control and scrambled PNA control on the tumor volume.

U2932 cells = assay: Cell viability by trypan blue assay, U2932; assay type: cell-based, human; details: U2932, in comparison to PBS treated control cells
Description: as §3, §4, §5, §6

U2932 lymphoma cell line = details: U2932, 10 uM; cited from earlier work

| Substance | viability of PBMC cell lines (PBMC cells) | alteration in gene expression in tumors (miR-155 downstream genes) | Mcl-1 protein level in tumors (miR-155 downstream genes; western blot) | miR-155 expression level in tumors (change) (miR-155) | effect on cell viability (SUDHL-2 cells) | effect on cell viability (SUDHL-5 cells) | tumor growth / tumor volume [1] | effect on cell viability (U2932 cells) | increase in apoptosis compared to control (U2932 lymphoma cell line) [fold] |
| --- | --- | --- | --- | --- | --- | --- | --- | --- | --- |
| Scr-γtcPNA-155: scrambled γtcPNA-155 synthesized as a control, SEQ ID NO: 4 (ACNTGCCATTNCACGAACNCT; gamma PNA backbone; scramble sequence; misc_feature 1 Arg-Arg-adenine-thymine-pseudoisocytosine-thymine -adenine-11-amino-3,6,9-trioxaundecanoic acid covalently linked to the backbone; modified_base 3 OTHER; n is pseudoisocytosine; modified_base 11 OTHER; misc_feature 21 Arg-Arg covalently linked to the backbone; modified_base 19 OTHER; modified_base 1..21 OTHER; peptid) [reference compound] | do not cause any non-specific effects | did not notice any alteration | did not notice any alteration | did not observe a change | did not notice any effect on cell viability | did not notice any effect on cell viability | no effect | did not notice any effect on cell viability |  |
| cobomarsen |  |  |  |  |  |  |  |  | 4 |
